Data as given in patent publication US20240270821A1, “GIP/GLP1/GCG TRI-RECEPTOR AGONISTS AND USES THEREOF” (priority 2023, published 2024).
pEC50: −log10 of the molar value. Like-named read-outs stand apart in the source and are kept apart here. Starred links: 1 amine or outer side, 2 acyl side, 3 side chain; linkers in the order of their positions; H or OH if unused. Non-standard residues stand in square brackets, D forms with d. Groups on a side chain read outwards from the residue. *: point of attachment. C20 diacid = O=C(O)CCCCCCCCCCCCCCCCCCC(=O)*; C18 diacid = O=C(O)CCCCCCCCCCCCCCCCC(=O)*; γGlu = O=C(O)[C@H](CCC(=O)[*:2])N[*:1]; αMeL = CC(C)C[C@](C)(N)C(=O)O; AEEA = NCCOCCOCC(=O)O; Aib = CC(C)(N)C(=O)O

Columns and labels:
Format in all cases: cell-based
hGIPR [1] = target: T1, hGIPR (Homo sapiens, UniProt P48546); experiment: Functional cAMP activity in the presence of 1% HSA
T1 sequence (P48546 22-466): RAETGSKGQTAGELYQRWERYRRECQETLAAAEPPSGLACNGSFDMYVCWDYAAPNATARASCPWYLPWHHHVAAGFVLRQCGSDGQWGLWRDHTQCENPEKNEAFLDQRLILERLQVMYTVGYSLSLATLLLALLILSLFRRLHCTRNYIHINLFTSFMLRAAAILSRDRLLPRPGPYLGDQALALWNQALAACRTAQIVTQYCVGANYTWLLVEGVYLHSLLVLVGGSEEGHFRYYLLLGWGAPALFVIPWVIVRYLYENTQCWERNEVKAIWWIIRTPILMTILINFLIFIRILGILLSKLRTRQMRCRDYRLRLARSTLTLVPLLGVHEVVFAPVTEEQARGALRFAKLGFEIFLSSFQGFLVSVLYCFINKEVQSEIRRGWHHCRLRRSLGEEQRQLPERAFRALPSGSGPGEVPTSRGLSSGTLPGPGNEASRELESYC

hGLP-1R [2] = target: T2, hGLP-1R (Homo sapiens, UniProt P43220); experiment: Functional cAMP activity in the presence of 1% HSA
T2 sequence (P43220 24-463): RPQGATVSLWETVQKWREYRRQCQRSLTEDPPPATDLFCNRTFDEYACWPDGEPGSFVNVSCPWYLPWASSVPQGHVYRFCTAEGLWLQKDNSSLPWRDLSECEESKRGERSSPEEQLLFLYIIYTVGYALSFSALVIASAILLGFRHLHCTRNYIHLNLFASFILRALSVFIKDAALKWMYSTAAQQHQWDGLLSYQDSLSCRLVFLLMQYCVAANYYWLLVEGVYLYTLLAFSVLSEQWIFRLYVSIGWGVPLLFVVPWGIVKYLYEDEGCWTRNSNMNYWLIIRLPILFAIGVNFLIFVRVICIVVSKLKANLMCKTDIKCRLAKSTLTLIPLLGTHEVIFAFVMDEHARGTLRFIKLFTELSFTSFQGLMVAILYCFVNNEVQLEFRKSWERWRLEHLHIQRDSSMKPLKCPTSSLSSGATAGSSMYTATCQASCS

human GcgR = human GcgR (Homo sapiens, UniProt P47871); experiment: Functional cAMP activity in the presence of 1% HSA
human GcgR, sequence (P47871 26-477): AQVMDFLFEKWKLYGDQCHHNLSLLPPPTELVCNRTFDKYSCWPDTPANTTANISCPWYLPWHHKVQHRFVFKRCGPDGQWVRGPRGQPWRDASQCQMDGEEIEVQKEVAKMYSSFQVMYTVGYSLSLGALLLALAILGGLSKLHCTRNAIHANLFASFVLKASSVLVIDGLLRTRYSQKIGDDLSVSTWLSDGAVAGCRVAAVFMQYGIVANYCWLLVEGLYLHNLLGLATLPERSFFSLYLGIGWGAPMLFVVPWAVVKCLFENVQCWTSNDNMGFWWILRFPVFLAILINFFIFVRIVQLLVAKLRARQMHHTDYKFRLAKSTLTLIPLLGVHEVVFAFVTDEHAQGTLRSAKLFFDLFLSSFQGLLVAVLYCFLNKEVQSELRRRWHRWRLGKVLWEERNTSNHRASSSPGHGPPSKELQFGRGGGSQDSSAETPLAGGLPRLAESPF

hGIPR [3] = target: T1, hGIPR; experiment: Functional cAMP activation in the presence of 0.1% casein (no HSA);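 as to Relative cAMP EC50, hGIPR: intracellular cAMP rise after 30 min at 37 °C read by HTRF against a standard curve, scaled between buffer alone (0%) and top control ligand concentration (100%), four-parameter fit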;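 as to Relative cAMP EC50, hGLP-1R: intracellular cAMP rise after 30 min at 37 °C read by HTRF, normalized between buffer only (0%) and maximal control ligand (100%), four-parameter variable-slope fit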;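 as to Relative cAMP EC50, hGcgR: intracellular cAMP rise after 30 min at 37 °C, read by HTRF against a cAMP standard curve, scaled from buffer only (0%) to maximal control ligand response (100%)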
hGLP-1R [4] = target: T2, hGLP-1R; experiment: as above
hGcgR = hGcgR (Homo sapiens, UniProt P47871); experiment: as above;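 also: intracellular cAMP rise after 30 min at 37 °C, read by HTRF against a cAMP standard curve, scaled from buffer only (0%) to maximal control ligand response (100%)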
hGcgR, sequence (P47871 26-477): as above

human GLP1-R = human GLP1-R (Homo sapiens, UniProt P43220); experiment: GLP1-R internalization assay in HEK293 cells; conditions: for Internalization % TOP: normalized to maximum concentration of GLP-1 (100%)
human GLP1-R, sequence (P43220 24-463): as the sequence (P43220 24-463) above

[5] = read-out: cAMP Rel EC50, hGLP-1R
[6] = in the presence of 0.1% casein (no HSA), geometric mean, read-out: Relative cAMP EC50, hGIPR
[7] = in the presence of 0.1% casein (no HSA), geometric mean, read-out: Relative cAMP EC50, hGLP-1R
[8] = in the presence of 0.1% casein (no HSA), geometric mean, read-out: Relative cAMP EC50, hGcgR
[9] = HEK293 cells expressing SNAP-GLP-1R, read-out: GLP1R Internalization EC50

Compound | pEC50 (hGIPR [1]) | pEC50 (hGLP-1R [2]) | pEC50 (human GcgR) | pEC50 (hGIPR [3]) | pEC50 (hGLP-1R [4]) | pEC50 (hGcgR) | pEC50 (human GLP1-R) | Internalization % TOP (human GLP1-R) [%] | pEC50 (hGIPR [1]; read-out: cAMP Rel EC50, hGIPR) | pEC50 (hGLP-1R [2]; [5]) | pEC50 (human GcgR; read-out: cAMP Rel EC50, hGcgR) | pEC50 (hGIPR [3]; [6]) | pEC50 (hGLP-1R [4]; [7]) | pEC50 (hGcgR; [8]) | pEC50 (human GLP1-R; [9])
CC[C@H](C)[C@H](NC(=O)[C@H](Cc1ccccc1)NC(=O)[C@H](C)NC(=O)[C@](C)(Cc1ccncc1)NC(=O)[C@H](CCC(N)=O)NC(=O)[C@H](C)NC(=O)[C@H](CCCCNC(=O)COCCOCCNC(=O)CC[C@H](NC(=O)CCCCCCCCCCCCCCCCC(=O)O)C(=O)O)NC(=O)[C@H](CCCCN)NC(=O)[C@H](CC(=O)O)NC(=O)[C@H](CC(C)C)NC(=O)[C@](C)(CC(C)C)NC(=O)[C@H](CCCNC(=N)N)NC(=O)[C@H](CO)NC(=O)[C@H](Cc1ccccc1)NC(=O)[C@H](CC(=O)O)NC(=O)[C@H](CO)NC(=O)[C@@H](NC(=O)[C@H](Cc1ccccc1)NC(=O)[C@@H](NC(=O)CNC(=O)[C@H](CCC(N)=O)NC(=O)C(C)(C)NC(=O)[C@@H](N)Cc1ccc(O)cc1)[C@@H](C)O)[C@@H](C)O)C(=O)N[C@@H](CCC(=O)O)C(=O)N[C@@H](Cc1ccc(O)cc1)C(=O)N[C@@H](CC(C)C)C(=O)N[C@H](C(=O)N[C@@H](CCC(=O)O)C(=O)NC(C)(C)C(=O)NCC(=O)N[C@@H](CCC(=O)O)C(=O)N[C@@H](CO)C(=O)N[C@@H](CO)C(=O)NCC(=O)N[C@@H](C)C(=O)N1CCC[C@H]1C(=O)N1CCC[C@H]1C(=O)N1CCC[C@H]1C(=O)N[C@@H](CO)C(=O)NCC(=O)N[C@@H](CO)C(N)=O)[C@@H](C)CC [Example 230] | 7.67 | 6.70 | 6.41 | 10.04 | 9.03 | 8.79 | 7.46 | 31.2 | – | – | – | – | – | – | –
H-Y[Aib]QGTFTSDFSK[αMeL]LDKK([AEEA-AEEA-γGlu-C20 diacid])AQ[Aib]AFIEYLLEGGPSSGAPPPGEG-NH2 [Example 17] | – | – | – | – | – | – | – | 72.2 | 7.04 | 6.27 | 5.69 | 9.50 | 8.53 | 8.08 | 7.18
H-Y[Aib]QGTFTSDFSK[αMeL]LDKK([AEEA-γGlu-C18 diacid])AQ[Aib]AFIEYLIEGGPSSGAPPPSEG-NH2 [Example 49] | – | – | – | – | – | – | – | 53.2 | 7.35 | 6.82 | 5.88 | 9.49 | 9.15 | 8.26 | 7.43
H-Y[Aib]QGTFTSDFSK[αMeL]LDKK([AEEA-γGlu-C18 diacid])AQ[Aib]AFIEYLIE[Aib]GESSGAPPPSGE-NH2 [Example 217] | – | – | – | – | – | – | – | 58.2 | 7.82 | 6.89 | 5.80 | 10.05 | 9.18 | 8.29 | 7.56
H-Y[Aib]QGTFTSDFSK[αMeL]LDKK([AEEA-γGlu-C18 diacid])AQ[Aib]AFIEYLLEGGPSSGAPPPSGS-NH2 [Example 141] | – | – | – | – | – | – | – | 64.1 | 7.21 | 6.25 | 6.06 | 9.68 | 8.71 | 8.75 | 7.02
H-Y[Aib]QGTFTSDFSK[αMeL]LDKK([AEEA-γGlu-C18 diacid])AQ[Aib]AFIEYLLE[Aib]GPSSGAPPPSEG-NH2 [Example 57] | – | – | – | – | – | – | – | 73.1 | 8.42 | 7.37 | 6.95 | 10.01 | 8.51 | 8.36 | 7.12
H-Y[Aib]QGTFTSDFSK[αMeL]LDKK([AEEA-γGlu-C18 diacid])AQ[Aib]AFIEYLLE[Aib]GPSSGEPPPSEG-NH2 [Example 46] | – | – | – | – | – | – | – | 58.1 | 7.71 | 6.22 | 6.41 | 10.02 | 8.39 | 8.82 | 7.39
H-Y[Aib]QGTFTSDFSK[αMeL]LDKK([AEEA-γGlu-C18 diacid])AQ[Aib]QFIEYLLEGGPSSGAPPPSEG-NH2 [Example 51] | – | – | – | – | – | – | – | 55.7 | 7.01 | 5.92 | 6.07 | 9.38 | 8.24 | 8.29 | 7.05
H-Y[Aib]QGTFTSDFSK[αMeL]LDKK([AEEA-γGlu-C20 diacid])AQQAFIEYLLA[Aib]GPSSGEPPPSEG-NH2 [Example 19] | 7.18 | 5.88 | 6.00 | 9.64 | 8.40 | 8.63 | 7.28 | 72.6 | – | – | – | – | – | – | –
H-Y[Aib]QGTFTSDFSK[αMeL]LDKK([AEEA-γGlu-C20 diacid])AQ[Aib]AFIEWLLEGGPSSGAPPPSEG-NH2 [Example 37] | – | – | – | – | – | – | – | 68.3 | 7.25 | 6.29 | 5.73 | 9.68 | 8.78 | 8.17 | 7.29
